{
  "source": "paper PMC11729425",
  "about": "(ACS Pharmacology & Translational Science, 2024)",
  "system": "human primary IBM cells",
  "experiment": "Aggresome detection (proteostat) in primary myoblasts from IBM patients",
  "type": "cell-based",
  "details": "4 μM for 24 h",
  "protocol": "Figure 4 1-deoxy-SL species accumulate in muscle and brain tissues during aging and contribute to cellular protein aggregation. (A,B) Heat map representing the abundance of sphingolipids in (A) gastrocnemius muscle and (B) brain with and without treatment with ALT-007 in mice (ALT-007 at 1 mg/kg; DMSO at equivalent volume for 20 weeks). N = 8 per group. Data are shown as log2 fold change. Adjusted P values are indicated as follows: *adjusted P < 0.05; **adjusted P < 0.01; ***adjusted P < 0.001. (C,D) Representative images and quantification of protein aggregates upon 1-deoxy-SA (C) and P053 treatment (D) in human primary IBM cells; both were administered at 4 μM for 24 h. N = 8 per group. (E) Analysis of 1-Deoxy-Spa and 1-DeoxyCer 24:1 levels in myoblasts from healthy and IBM patients. N = 3 per group. (C–E) Quantitative data are expressed as median with IQR and compared using the Mann–Whitney U test. All tests were 2 sided. *P < 0.05, **P < 0.01, ***P < 0.001.\nPrimary myoblasts from IBM patients and healthy aged matched donors were provided by Hospices Civils de Lyon. Cells were grown in DMEM/F-10 supplemented with 12% FBS (Gibco) and penicillin–streptomycin (1×, Gibco). Cells were cultured on sterilized coverslips in six-well plates (Greiner BioOne, CELLSTAR, 657160). […]",
  "data": [
    {"smiles": "CCCCCCCCCCCCCCC[C@@H](O)[C@H](C)N", "note": "[1-deoxy-SA, 1-deoxy-sphinganine]", "values": [
      {"measurement": "cellular protein aggregates (proteostat signal)", "result": "significantly exacerbated the accumulation of cellular protein aggregates"}
    ]}
  ]
}
